From the supplement of paper PMC11208160

Assay: recombinant barcode read abundance after kanamycin selection (control-corrected) (log10(CPM+1)); higher = more efficient recombination; sequences stand for … in AGTGCAGAGAAAATCGGCCAGTTTTCTCTGCCTGCAGTCCGCATGCCGT…AGATTTATGCAGCGGACTGCCTTTCTCCCAAAGTGATAAACCGGACAGTATCATGGACCGGTTTTCCCGGTAATCCGTATTTGCAAGGTTGGTTTCACT; site = the 11-nt target
Summary of the method: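 Pooled oligos, each joining a target to an IS621 bridge RNA target-binding loop, were cloned and co-electroporated with a donor plasmid into E. coli. Selective plates carried chloramphenicol/ampicillin/kanamycin and 0.1 mM IPTG, while chloramphenicol/ampicillin LB agar served as control, with two replicates of each. Recombination efficiency rests on averaged, control-corrected counts per million of barcodes at recombinant junctions, shown as log10(CPM+1).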
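Further: IS621 recombinase and bridge RNA in Escherichia coli cells.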

Point of comparison: “GTCCGTCCTTGGGTTCTAACCTGTTGCTT (site GTCCGTCCTAG)”, “recombinant barcode read abundance (log10)” value 0.249. Against it:
- GTCCCCTCTTGGGTTCTAACCTGTTGCCT (site GTCGCCTCTAG) — within 0.2 log units, 0.109
- GTCCCCTCTTGGGTTCTAACCTGTTGCCT (site GTCTCCTCTAG) — lower, 0.0122
- GTCCCTACTTGGGTTCTAACCTGTTGCCG (site GTCACTACTCG) — within 0.2 log units, 0.12
- GTCCCTACTTGGGTTCTAACCTGTTGCCG (site GTCCCTACTCG) — higher, 1.11
- GTCCCTACTTGGGTTCTAACCTGTTGCCG (site GTCGCTACTCG) — lower, 0
- GTCCCTACTTGGGTTCTAACCTGTTGCCG (site GTCTCTACTCG) — within 0.2 log units, 0.0614
- GTCCGCTCTTGGGTTCTAACCTGTTGCCT (site ATCCGCTCTAG) — higher, 1.4
- GTCCGCTCTTGGGTTCTAACCTGTTGCCT (site CTCCGCTCTAG) — higher, 0.823
- GTCCGCTCTTGGGTTCTAACCTGTTGCCT (site GTCCGCTCTAG) — higher, 2.37
- GTCCGCTCTTGGGTTCTAACCTGTTGCCT (site TTCCGCTCTAG) — within 0.2 log units, 0.383
- GTCCGGTCTTGGGTTCTAACCTGTTGCTT (site GTCCGGTCTAA) — higher, 1.07
- GTCCGGTCTTGGGTTCTAACCTGTTGCTT (site GTCGGGTCTAG) — within 0.2 log units, 0.097
- GTCCGTCCTTGGGTTCTAACCTGTTGCTT (site GTCCGTCCTAA) — higher, 0.907
- GTCCGTCCTTGGGTTCTAACCTGTTGCTT (site GTCCGTCCTAC) — within 0.2 log units, 0.0973
- GTCCGTCCTTGGGTTCTAACCTGTTGCTT (site GTCCGTCCTAT) — within 0.2 log units, 0.416
- GTCCTACCTTGGGTTCTAACCTGTTGCTA (site AGAAATACTCG) — within 0.2 log units, 0.442
- GTCCTACCTTGGGTTCTAACCTGTTGCTA (site GTCCTACCTTA) — higher, 1.63
- GTCCTATCTTGGGTTCTAACCTGTTGCAC (site CGAGGCCCTAA) — lower, 0.0371
- GTCCTATCTTGGGTTCTAACCTGTTGCAC (site GTCCTATCTGT) — higher, 1.98
- GTCGATCCTTGGGTTCTAACCTGTTGCCT (site GACGATCCTAG) — higher, 0.69
- GTCGATCCTTGGGTTCTAACCTGTTGCCT (site GCCGATCCTAG) — higher, 0.639
- GTCGATCCTTGGGTTCTAACCTGTTGCCT (site GGCGATCCTAG) — within 0.2 log units, 0.221
- GTCGATCCTTGGGTTCTAACCTGTTGCCT (site GTCGATCCTAG) — higher, 1.68
- GTCGCCTCTTGGGTTCTAACCTGTTGCCT (site GTCACCTCTAG) — within 0.2 log units, 0.157
- GTCGCCTCTTGGGTTCTAACCTGTTGCCT (site GTCCCCTCTAG) — higher, 0.491
- GTCGCCTCTTGGGTTCTAACCTGTTGCCT (site GTCGCCTCTAG) — within 0.2 log units, 0.297
- GTCGCCTCTTGGGTTCTAACCTGTTGCCT (site GTCTCCTCTAG) — within 0.2 log units, 0.0886
- GTCGGAGCTTGGGTTCTAACCTGTTGCAG (site GTCGGAGCTCA) — higher, 0.681
- GTCGGAGCTTGGGTTCTAACCTGTTGCAG (site GTCGGAGCTCC) — within 0.2 log units, 0.165
- GTCGGAGCTTGGGTTCTAACCTGTTGCAG (site GTCGGAGCTCG) — within 0.2 log units, 0.104
- GTCGGAGCTTGGGTTCTAACCTGTTGCAG (site GTCGGAGCTCT) — higher, 1.89
- GTCGGGTCTTGGGTTCTAACCTGTTGCCT (site GTCCGGTCTAA) — within 0.2 log units, 0.054
- GTCGGGTCTTGGGTTCTAACCTGTTGCCT (site GTCGGGTCTAG) — higher, 1.47
- GTCGGTCCTTGGGTTCTAACCTGTTGCCG (site AGTTTAACTGT) — lower, 0.0178
- GTCGGTCCTTGGGTTCTAACCTGTTGCCG (site GTCGGTCCTCG) — higher, 1.04
- GTCGTCCCTTGGGTTCTAACCTGTTGCCA (site GCCGTCCCTTA) — within 0.2 log units, 0.071
- GTCGTCCCTTGGGTTCTAACCTGTTGCCA (site GTCGTCCCTTG) — within 0.2 log units, 0.231
- GTCTATGCTTGGGTTCTAACCTGTTGCCT (site GACTATGCTAG) — within 0.2 log units, 0.106
- GTCTATGCTTGGGTTCTAACCTGTTGCCT (site GCCTATGCTAG) — within 0.2 log units, 0.213
- GTCTATGCTTGGGTTCTAACCTGTTGCCT (site GGCTATGCTAG) — within 0.2 log units, 0.185
- GTCTATGCTTGGGTTCTAACCTGTTGCCT (site GTCTATGCTAG) — within 0.2 log units, 0.0906
- GTCTCAACTTGGGTTCTAACCTGTTGCCT (site GTCTCAACTAG) — higher, 0.604
